The target of the test is T1, red kidney bean PAP (rkbPAP) (Phaseolus vulgaris, UniProt P80366).
T1 construct: The rkbPAP was purified from red kidney bean according to the method described by Beck et al; from tissue; host or cells: red kidney bean seeds (Phaseolus vulgaris), local market
T1 sequence (P80366 23-459): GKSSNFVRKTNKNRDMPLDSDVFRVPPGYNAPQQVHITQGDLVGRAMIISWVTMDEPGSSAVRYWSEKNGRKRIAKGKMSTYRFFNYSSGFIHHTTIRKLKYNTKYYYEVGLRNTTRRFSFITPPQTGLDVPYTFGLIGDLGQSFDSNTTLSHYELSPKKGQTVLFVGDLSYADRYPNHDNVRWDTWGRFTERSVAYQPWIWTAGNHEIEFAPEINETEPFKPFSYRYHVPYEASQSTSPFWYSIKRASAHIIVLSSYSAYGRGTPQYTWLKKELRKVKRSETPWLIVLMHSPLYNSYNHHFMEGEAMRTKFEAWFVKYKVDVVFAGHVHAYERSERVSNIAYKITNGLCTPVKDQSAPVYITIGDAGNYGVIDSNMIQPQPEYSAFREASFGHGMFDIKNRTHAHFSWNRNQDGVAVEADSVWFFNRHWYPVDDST
Put plainly: rkbPAP inhibition assay with p-NPP as substrate. In kind it is biochemical. As to conditions: for inhibition of PAP (in words) / Ki: pH 4.9; for inhibition mode: from Ki vs KI and Lineweaver–Burk plots. The source says: PAP from red kidney bean (rkbPAP) was purified following a previously published protocol. Briefly, red kidney beans (Phaseolus vulgaris), provided from local market, were ground and suspended in 0.5 M sodium chloride solution. The suspension was filtered through a muslin cloth, followed by ethanol fractionation and ammonium sulfate precipitation. The purple enzyme solution was dialyzed against several changes of 0.25 M NaCl over a period of several days. The purple precipitate, which formed in the dialysis bag was collected by centrifugation. The resulting preparation stored at 4 °C in 0.5 M NaCl. The protein identity and purity was tested by SDS–polyacrylamide gel electrophoresis (SDS–PAGE) and by comparing with molecular weight protein markers, by loading the protein samples on a 12% slab gel. Protein concentration was determined by Lowry method.
Inhibition assays for rkbPAP was performed in 96-well multi-titer plates using a microplate reader. Kinetic measurements were taken at pH 4.9 (0.1 M sodium citrate buffer with 5% DMSO) at 25 °C using p-nitrophenyl phosphate (p-NPP) as the substrate at concentrations of 1, 2, 4, 6, 8, 10, 12, 14, 18 and 24 mM[29]. The hydrolysis of p-NPP by PAP produces p-nitrophenol (p-NP), which has a characteristic intense yellow color at 405 nm with […] [18]^,[26]. The concentration of enzyme used was ∼60 nM, while at least eight concentrations of each compound ranged from 50 to 2000 µM. The IC50 values obtained by “Dose–response inhibition/variable slopes” equation that was performed using GraphPad Prism version 5.00 for Windows (GraphPad Software, San Diego CA, www.graphpad.com). The experimental data are representative example of three independent experiments. In most cases, the standard deviations were almost within 5% of the experimental values, except for some inhibition data points where standard errors of means were within 10% of the measured values. p < .05 was considered statistically significant.
To determination of inhibition mode, the Michaelis–Menten constant (Km) and maximum velocity (Vmax) and inhibition constants (Ki and KI) values were obtained using Equation (1)[29]^,[30] in the presence of at least four concentrations of each compound which were selected from concentration–activity curves. The data were analyzed by nonlinear regression using the program GraphPad Prism (1) v=Vmax[S]/[S](1+[I]/KI)+Km(1+[I]/Ki) where Ki and KI are the equilibrium dissociation constants for competitive and uncompetitive inhibitor binding, respectively, while, v, [S] and [I] represent the rate of product formation, the substrate and the inhibitor concentration, respectively. […] If Ki < KI, the type of enzyme inhibition was defined as competitive-noncompetitive and if Ki > KI, the type of enzyme inhibition was defined as uncompetitive–noncompetitive. […] For better visual presentation of data of inhibition mode, the Lineweaver–Burk plots were also provided.

The mark [1] stands for this setting: rkbPAP, pH 4.9, 25 °C, p-NPP substrate.
The mark [2] stands for this setting: KI, dissociation constant of enzyme–substrate–inhibitor complex (uncompetitive).
Where [3] appears, read: Ki, dissociation constant of enzyme–inhibitor complex (competitive).
Where [4] appears, read: dissociation constant of enzyme–inhibitor complex (competitive), read-out: Ki.
Where [5] appears, read: dissociation constant of enzyme–substrate–inhibitor complex (uncompetitive), read-out: KI.
Where [6] appears, read: rkbPAP, pH 4.9, 25 °C, p-NPP substrate, read-out: IC50.

Read-outs that look alike come from different tables or passages of the source.

One may read the IC50 as the concentration needed to halve the response being measured. As a reminder, the Ki is a dissociation constant, usually derived from enzyme kinetics or from competition with a known ligand.

In the case of `CCCCCCS(=O)(=O)NC(c1ccc(OC)cc1)P(=O)(OCC)OCC` (stereo not drawn) [3a, Diethyl(hexylsulfonamido(4-methoxyphenyl)methyl)phosphonate], the “inhibition of PAP (in words)” value was “negligible inhibitions of PAP, in millimolar range”. Further, under setting [1], the half-maximal inhibitory concentration (IC50) entry is recorded as “Very weak inhibitor”.

For `CCCCCCCCS(=O)(=O)NC(c1ccc(OC)cc1)P(=O)(OCC)OCC` (stereo not drawn) [3b, Diethyl((4-methoxyphenyl)(octylsulfonamido)methyl)phosphonate], the “inhibition of PAP (in words)” value was “negligible inhibitions of PAP, in millimolar range”. The half-inhibitory concentration (IC50) entry under setting [1] is given as “Very weak inhibitor”.

As to `CCCCCCCCCCCCS(=O)(=O)NC(c1ccc(OC)cc1)P(=O)(OCC)OCC` (stereo not drawn) [3c, Diethyl(dodecylsulfonamido(4-methoxyphenyl)methyl)phosphonate], inhibition was half-maximal at 759 µM (IC50) and the inhibition mode result is “noncompetitive inhibition”. This compound registered a Ki under setting [2] of 211 ± 8 µM. Moreover, the Ki under setting [3] turned out to be 202 ± 11 µM.

With `CCCCCCCCCCCCCCCCS(=O)(=O)NC(c1ccc(OC)cc1)P(=O)(OCC)OCC` (stereo not drawn) [3d, Diethyl(hexadecylsulfonamido(4-methoxyphenyl)methyl)phosphonate], the half-inhibitory concentration (IC50) amounted to 92 µM and the inhibition mode result is “mixed manner”. This compound also yielded a Ki under setting [2] of 36 ± 3 µM. Moreover, the affinity under setting [3], expressed as Ki, was 13 ± 1 µM.

On to `CCCCCCS(=O)(=O)NC(c1ccc(OC)cc1)P(=O)(O)O` (stereo not drawn) [4a, (Hexylsulfonamido(4-methoxyphenyl)methyl)phosphonic acid], for which the “inhibition of PAP (in words)” value is given as “negligible inhibitions of PAP, in millimolar range”. Besides, the IC50 entry under setting [1] is “Very weak inhibitor”.

Consider `CCCCCCCCS(=O)(=O)NC(c1ccc(OC)cc1)P(=O)(O)O` (stereo not drawn) [4b, ((4-Methoxyphenyl)(octylsulfonamido)methyl)phosphonic acid], for which the “inhibition of PAP (in words)” value was “negligible inhibitions of PAP, in millimolar range”. In addition, the half-inhibitory concentration (IC50) result under setting [1] is reported as “Very weak inhibitor”.

Take `CCCCCCCCCCCCS(=O)(=O)NC(c1ccc(OC)cc1)P(=O)(O)O` (stereo not drawn) [4c, (Dodecylsulfonamido(4-methoxyphenyl)methyl)phosphonic acid]: the inhibition mode result is listed as “noncompetitive inhibition”. Moreover, the inhibitory constant (Ki) under setting [4] amounted to 95 ± 9 µM. Moreover, under setting [5], the Ki came out at 103 ± 5 µM. Moreover, the IC50 under setting [6] was 421 µM.

In the case of `CCCCCCCCCCCCCCCCS(=O)(=O)NC(c1ccc(OC)cc1)P(=O)(O)O` (stereo not drawn) [4d, (Hexadecylsulfonamido(4-methoxyphenyl)methyl)phosphonic acid], the inhibition mode entry is given as “mixed manner”. Moreover, the inhibition constant Ki under setting [4] came to 1.1 ± 0.2 µM. In addition, under setting [5], the inhibitory constant (Ki) was found to be 8.2 ± 1.4 µM. Under setting [6], the 50% inhibitory concentration (IC50) stood at 13 µM.

Regarding `O=C(O)C(O)C(O)C(=O)O` (stereo not drawn) [Tartrate, reference compound], the “inhibition of PAP (in words)” value is listed as “weakly inhibited”. Further, the Ki under setting [4] amounted to 783 ± 41 µM. In addition, under setting [6], the IC50 worked out at 3310 µM.
